These results are taken from ChEMBL document CHEMBL6114961, “Novel isoxazole thiophene-containing compounds active against Mycobacterium tuberculosis” (Bioorg Med Chem Lett, 2025).

One may read the MIC90 as an inhibitory concentration at the 90% level, which refers to growth in some studies and to a panel of isolates in others.

What all share (type): functional
Experiment [1] relates to Mycobacterium tuberculosis. The experiment in a line: Antituberculosis activity against Mycobacterium tuberculosis sCHN240 mutant CR6 strain assessed as reduction in bacterial growth.
In experiment [2] the test system is Mycobacterium tuberculosis. The experiment in a line: Antituberculosis activity against Mycobacterium tuberculosis sCHN240 mutant CR5 strain assessed as reduction in bacterial growth.
Experiment [3] relates to Mycobacterium tuberculosis. Description: Antituberculosis activity against Mycobacterium tuberculosis sCHN240 mutant CR3 strain assessed as reduction in bacterial growth.
For experiment [4], the system named is Mycobacterium tuberculosis. The experiment in a line: Antituberculosis activity against Mycobacterium tuberculosis sCHN240 mutant CR2 strain assessed as reduction in bacterial growth.
Experiment [5] deals with Mycobacterium tuberculosis. Description: Antituberculosis activity against Mycobacterium tuberculosis sCHN240 mutant CR1 strain assessed as reduction in bacterial growth.
The test system of experiment [6] is Mycobacterium tuberculosis. Description: Antituberculosis activity against Mycobacterium tuberculosis Rv1625c mutant assessed as reduction in bacterial growth measured after 7 days using 7H9 broth by Alamar blue staining based analysis. The settings on record: time 7 day. For orientation: The colour change of resazurin is a common sign of viable cells or microbes.

In brackets after ≈: the same amount, converted by molar mass. Some results are limits rather than exact numbers.

Take `Cn1ncnc1CC(=O)N1CCC(c2nc(-c3ccc(Cl)c(Cl)c3)no2)CC1`: the MIC90 in experiment [1], in experiment [2], in experiment [3], in experiment [4] and in experiment [5] was above 20 µM in each case.

As to `O=S(=O)(Nc1cc(-c2ccsc2)no1)c1ccccc1F`, the MIC90 in experiment [6] was 19.9 µM (≈ 6.45 µg/mL).
